Data published in patent US7514529B2, “Peptide mimotopes of lipooligosaccharide from nontypeable Haemophilus influenzae as vaccines” (The United States of America as represented by the …, priority 2003, dated 2009).

Tested on: target rabbit anti-LOS antibody
Experiment: Peptide ELISA (NucleoLink strips): synthetic peptides binding the target anti-LOS antibody
Conditions: for Binding reactivity (OD405): 5 μg peptide coupled to strip, 0.4 μg/well target antibody, average of duplicates; for Binding reactivity of synthetic peptides to target anti-LOS antibody (in words): peptide-coated ELISA
Description: Four peptides were synthesized with a spacer (GGGS) at each C-terminus (Genemed Synthesis, Inc., San Francisco, Calif.). Binding reactivity of the synthetic peptides to the target anti-LOS antibody was tested with a peptide ELISA using Nunc NucleoLink™ Strips (Fisher Scientific, Pittsburgh, Pa.). Following the instructions of the product with modifications, the strips were coated covalently with its amino groups to the C-terminal carboxyl groups of the synthetic peptides by a coupling reagent, [1-Ethyl-3-(3-dimethylaminopropyl) carbodiimide HCl] (EDC, Pierce). Briefly, peptides and 0.1 M 1-methyl-imidazole (Meim) (Sigma-Aldrich) at pH 7 were pre-cooled on ice, and a 100 μl of individual peptide solution with 5 μg of peptide in 10 mM MeIm was prepared in a well of strips on ice. This peptide solution (75 μl) was mixed with 25 μl of freshly prepared 0.2 M EDC in 10 mM MeIm in another well of the strips. The strips were sealed and incubated at 50° C. for 5 h. After removing the reaction mixture, the strips were soaked with washing buffer (freshly prepared 0.25% SDS in 0.4 N NaOH and warmed at 50° C.) for 5 min and emptied. This step was performed for three times, followed by another three washings without the 5-min soaking. After removing the washing buffer, the strips was washed thoroughly with deionized water. The following steps were the same as described in the LOS ELISA (Gu et al. 1996 Infect Immun 64:4047). After blocking with 1% BSA in PBS, the target anti-LOS antibody was added in the amount of 0.4 μg/well followed by a goat anti-rabbit IgG alkaline phosphatase conjugate. The binding reactivity of the synthetic peptides to the target anti-LOS antibody was evaluated by OD405 values at 30 min after adding a substrate.

Sequence | Binding reactivity (OD405) | Binding reactivity of synthetic peptides to target anti-LOS antibody (in words)
NMMKYISPPIFL [Peptide 3] | 1.11 OD405 | higher binding reactivity
NMMNYIMDPRTH [Peptide 2] | 2.52 OD405 | higher binding reactivity
NMMRFTELSTPS [Peptide 4] | 0.99 OD405 | higher binding reactivity
NMMRFTSQPPNN [Peptide 1] | 0.40 OD405 | did not show good antigenic mimic of the LOS
TLAHHKKPWILR [Peptide 5, control peptide from an unrelated clone, reference compound] | 0.33 OD405 | –
